Tests used:
[1] = Activation of BTN3A1 in human Vgamma9Vdelta2 T cells assessed as induction of T effector cells mediated K562 cell lysis preincubated with K562 cells for 2 hrs followed by T effector cell addition measured after 4 hrs
[2] = Activation of BTN3A1 in human Vgamma9Vdelta2 T cells assessed as induction of interleukin 2 stimulated cell proliferation treated for 72 hrs measured on day 11 post last treatment by flow cytometry
[3] = target: T1, Butyrophilin subfamily 3 member A1 (Homo sapiens, UniProt O00481); assay: Activation of BTN3A1 in human Vgamma9Vdelta2 T cells assessed as induction of interleukin 2 stimulated cell proliferation treated for 72 hrs measured on day 11 post last treatment by flow cytometry
[4] = target: T1, Butyrophilin subfamily 3 member A1; assay: Activation of BTN3A1 in human Vgamma9Vdelta2 T cells assessed as induction of T effector cells mediated K562 cell lysis preincubated with K562 cells for 2 hrs followed by T effector cell addition measured after 4 hrs

T1 sequence (O00481 whole entry): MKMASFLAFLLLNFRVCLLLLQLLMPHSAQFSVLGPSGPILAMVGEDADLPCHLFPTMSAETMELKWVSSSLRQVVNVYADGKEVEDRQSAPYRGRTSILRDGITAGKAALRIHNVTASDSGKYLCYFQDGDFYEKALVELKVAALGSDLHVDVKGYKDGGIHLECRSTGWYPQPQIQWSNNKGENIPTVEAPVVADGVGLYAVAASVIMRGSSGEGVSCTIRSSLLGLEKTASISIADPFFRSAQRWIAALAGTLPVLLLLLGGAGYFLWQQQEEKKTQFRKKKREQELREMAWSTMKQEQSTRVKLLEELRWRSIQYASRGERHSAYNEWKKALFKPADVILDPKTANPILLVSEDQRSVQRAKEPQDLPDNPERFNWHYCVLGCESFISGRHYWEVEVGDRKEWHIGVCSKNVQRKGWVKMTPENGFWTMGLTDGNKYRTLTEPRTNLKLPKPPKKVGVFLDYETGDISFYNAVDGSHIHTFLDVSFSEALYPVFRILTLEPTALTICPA

Compound | EC50 [1] | EC50 [2] | EC50 [3] | EC50 [4]
CC(C)=CCCP(=O)(CP(=O)(OCOC(=O)C(C)(C)C)OCOC(=O)C(C)(C)C)OCOC(=O)C(C)(C)C (stereo not drawn) | 7.3 µM | > 100 µM | – | –
COP(=O)(CC/C=C(\C)CO)CP(=O)(OC)OC (stereo not drawn) | > 100 µM | > 100 µM | – | –
[C]C([C])=[C][C][C]P(=O)(O)[C]P(=O)(O)O | – | – | > 100 µM | > 100 µM
C/C(=C\CCP(=O)(CP(=O)(OCOC(=O)C(C)(C)C)OCOC(=O)C(C)(C)C)OCOC(=O)C(C)(C)C)CO (stereo not drawn) | 0.28 µM | – | – | –
CC(=CCCP(=O)(O)CP(=O)(O)O)CO | 41 µM | – | – | –
